Patent publication US20050208496A1, “Methods of testing for bronchial asthma or chronic obstructive pulmonary disease” (Genox Research, Inc., priority 2002, published 2005)

Tested on: respiratory epithelial cells

IL-13: human IL-13 (Peprotech, Inc.) added to the medium at 50 ng/mL to stimulate respiratory epithelial cells
KCNMA1 (47575_g_at) expression change (lot 2, Day 3, AI): −3.5 | KCNMA1 (53796_at) expression change (lot 2, Day 3, AI): −4.8 | KIAA0878 (48793_at) expression change (lot 2, Day 3, AI): −2.1 | KLF7 34216_at expression change (lot 2, Day 3, AI): −2.6 | KLF7 (42769_at) expression change (lot 2, Day 3, AI): −5.7 | KRT15 37582_at expression change (lot 2, Day 3, AI): −2.7 | LOC51297 (49616_at) expression change (lot 2, Day 3, AI): −13.4 | LOC51297 (55440_at) expression change (lot 2, Day 3, AI): −10.8 | LOC51297 (55442_g_at) expression change (lot 2, Day 3, AI): −14.4 | LOC129642 (42065_at) expression change (lot 2, Day 3, AI): −2.8 | LOC129642 (58288_at) expression change (lot 2, Day 3, AI): −3 | MGC12536 46924_at expression change (lot 2, Day 3, AI): −4.2 | MGC13102 (54791_at) expression change (lot 2, Day 3, AI): −2.1 | MGC14128 55924_at expression change (lot 2, Day 3, AI): −3.3 | MGC14128 (51669_r_at) expression change (lot 2, Day 3, AI): −3 | MGC14597 (46030_at) expression change (lot 2, Day 3, AI): −8.5 | N52554 47432_at expression change (lot 2, Day 3, AI): −2.3 | N71183 52473_at expression change (lot 2, Day 3, AI): −2.2 | PR01489 57777_at expression change (lot 2, Day 3, AI): −3.3 | PSCA (63958_at) expression change (lot 2, Day 3, AI): −5.5 | RAC2 32737_at expression change (lot 2, Day 3, AI): −17.4 | RGC32 (57044_s_at) expression change (lot 2, Day 3, AI): −2.2 | SCNN1B 39682_at expression change (lot 2, Day 3, AI): −12.3 | SCYB14 (65823_at) expression change (lot 2, Day 3, AI): −2.1 | SERPINA3 (75248_at) expression change (lot 2, Day 3, AI): −35.8 | SLC11A3 (45826_at) expression change (lot 2, Day 3, AI): −2.5 | SLC34A2 (48048_at) expression change (lot 2, Day 3, AI): −4.3 | SPON2 52576_s_at expression change (lot 2, Day 3, AI): −3.1 | STEAP 40297_at expression change (lot 2, Day 3, AI): −2.6 | TCF8 33439_at expression change (lot 2, Day 3, AI): −2.7 | TGFBI (68339_at) expression change (lot 2, Day 3, AI): −2.8 | TNFAIP2 (74633_at) expression change (lot 2, Day 3, AI): −2.2 | TNRC3 41246_at expression change (lot 2, Day 3, AI): −2 | TPM1 36790_at expression change (lot 2, Day 3, AI): −5.4 | TPM1 36791_g_at expression change (lot 2, Day 3, AI): −3.5 | TPM1 36792_at expression change (lot 2, Day 3, AI): −5 | UCP2 37591_at expression change (lot 2, Day 3, AI): −2.3 | UGB 39220_at expression change (lot 2, Day 3, AI): −17.8 | VEGFC 1934_s_at expression change (lot 2, Day 3, AI): −2.5 | VIM 34091_s_at expression change (lot 2, Day 3, AI): −3.1 | W72331 49486 at expression change (lot 2, Day 3, AI): −7.8 | AA149682 (51925_at) expression fold change (lot 2, Day 3, AI method): 2.2 fold | AA167714 (54897_at) expression fold change (lot 2, Day 3, AI method): 2.9 fold | AA420479 (52539_at) expression fold change (lot 2, Day 3, AI method): 2.2 fold | AA541787 (52622_at) expression fold change (lot 2, Day 3, AI method): 2.2 fold | AA582926 (52307_at) expression fold change (lot 2, Day 3, AI method): 2.2 fold | AA604375 (44127_at) expression fold change (lot 2, Day 3, AI method): 2.1 fold | ADAM8 (40712_at) expression, fold change upon IL-13 stimulation (lot 2, Day 3, AI method): 2.7 fold | ADAM28 (35479_at) expression, fold change upon IL-13 stimulation (lot 2, Day 3, AI method): 3.5 fold | AI310524 (47087_at) expression fold change (lot 2, Day 3, AI method): 2 fold | AI565105 (54886_at) expression fold change (lot 2, Day 3, AI method): 2.2 fold | AI659927 (54033_at) expression fold change (lot 2, Day 3, AI method): 4.6 fold | AI718385 (53061_at) expression fold change (lot 2, Day 3, AI method): 2.2 fold | AI809925 (53010_at) expression fold change (lot 2, Day 3, AI method): 2.2 fold | AI989346 (52327_s_at) expression fold change (lot 2, Day 3, AI method): 2.2 fold | AKAP2 (35985_at) expression, fold change upon IL-13 stimulation (lot 2, Day 3, AI method): 2.5 fold | AKAP2 (48035_at) expression fold change (lot 2, Day 3, AI method): 3 fold | ALOX15 (34636_at) expression, fold change upon IL-13 stimulation (lot 2, Day 3, AI method): 112.2 fold | ARL7 (57151_at) expression fold change (lot 2, Day 3, AI method): 6.1 fold | AW019985 (48826_s_at) expression fold change (lot 2, Day 3, AI method): 9.8 fold | BAL (52167_at) expression fold change (lot 2, Day 3, AI method): 2.7 fold | BRCA1 (626_s_at) expression fold change (lot 2, Day 3, AI method): 19.3 fold | BST2 (39061_at) expression, fold change upon IL-13 stimulation (lot 2, Day 3, AI method): 5.8 fold | C21orf11 (58957_at) expression fold change (lot 2, Day 3, AI method): 7.1 fold | CCND3 (1794_at) expression fold change upon IL-13 stimulation (lot 2, Day 3, AI method): 2.3 fold | CCND3 (1795_g_at) expression fold change upon IL-13 stimulation (lot 2, Day 3, AI method): 2.4 fold | CD47 (37890_at) expression fold change (lot 2, Day 3, AI method): 2.4 fold | CDH6 (1620_at) expression fold change upon IL-13 stimulation (lot 2, Day 3, AI method): 5.6 fold | CDH6 (57421_at) expression fold change (lot 2, Day 3, AI method): 2.9 fold | CDH26 (46916_at) expression fold change (lot 2, Day 3, AI method): 10.5 fold | CH25H (32363_at) expression, fold change upon IL-13 stimulation (lot 2, Day 3, AI method): 14.9 fold | CLDN1 (46260_at) expression fold change (lot 2, Day 3, AI method): 2.4 fold | CLDN4 (35276_at) expression, fold change upon IL-13 stimulation (lot 2, Day 3, AI method): 2.2 fold | CTSC (133_at) expression, fold change upon IL-13 stimulation (lot 2, Day 3, AI method): 3.9 fold | CXCL16 (44095_at) expression fold change (lot 2, Day 3, AI method): 2.3 fold | DBCCR1 (40292_at) expression, fold change upon IL-13 stimulation (lot 2, Day 3, AI method): 7.9 fold | DD96 (31610_at) expression, fold change upon IL-13 stimulation (lot 2, Day 3, AI method): 5.3 fold | DKFZP564O0823 (41402_at) expression, fold change upon IL-13 stimulation (lot 2, Day 3, AI method): 5.4 fold | DKFZP566J091 (57197_at) expression fold change (lot 2, Day 3, AI method): 45.3 fold | DKFZp564N1116 (37784_at) expression, fold change upon IL-13 stimulation (lot 2, Day 3, AI method): 5 fold | DNAJA1 (276_at) expression fold change upon IL-13 stimulation (lot 2, Day 3, AI method): 2.2 fold | DPP4 (34823_at) expression fold change upon IL-13 stimulation (lot 2, Day 3, AI method): 7.6 fold | DPYD (38220_at) expression fold change upon IL-13 stimulation (lot 2, Day 3, AI method): 3.9 fold | EMILIN-2 (51628_at) expression fold change (lot 2, Day 3, AI method): 2.9 fold | FABP4 (38430_at) expression, fold change upon IL-13 stimulation (lot 2, Day 3, AI method): 2.5 fold | FBP1 (36495_at) expression fold change upon IL-13 stimulation (lot 2, Day 3, AI method): 4.4 fold | FETUB (32620_at) expression fold change (lot 2, Day 3, AI method): 37.6 fold | FETUB (33101_g_at) expression fold change (lot 2, Day 3, AI method): 24.7 fold | FLJ10261 (43366_at) expression fold change (lot 2, Day 3, AI method): 11.2 fold | FLJ10261 (43963_at) expression fold change (lot 2, Day 3, AI method): 14.4 fold | FLJ22693 (53777_at) expression fold change (lot 2, Day 3, AI method): 2.2 fold | FUT10 (908_at) expression fold change upon IL-13 stimulation (lot 2, Day 3, AI method): 8.9 fold | GADD45G (39154_at) expression fold change upon IL-13 stimulation (lot 2, Day 3, AI method): 5.3 fold | GBP5 (52615_at) expression fold change (lot 2, Day 3, AI method): 4.5 fold | GS3686 (36927_at) expression, fold change upon IL-13 stimulation (lot 2, Day 3, AI method): 6.4 fold | HAS3 (54604_at) expression fold change (lot 2, Day 3, AI method): 2 fold | HDAC9 (37483_at) expression fold change upon IL-13 stimulation (lot 2, Day 3, AI method): 3.7 fold | HS3ST1 (41556_s_at) expression fold change upon IL-13 stimulation (lot 2, Day 3, AI method): 5.8 fold | HSPA5 (47634_at) expression fold change (lot 2, Day 3, AI method): 3.7 fold | ICAMt (32640_at) expression fold change upon IL-13 stimulation (lot 2, Day 3, AI method): 2.8 fold | IFI27 (425_at) expression, fold change upon IL-13 stimulation (lot 2, Day 3, AI method): 2.5 fold | IFI27 (48864_at) expression fold change (lot 2, Day 3, AI method): 2.1 fold | IFI35 (464_s_at) expression, fold change upon IL-13 stimulation (lot 2, Day 3, AI method): 4.5 fold | IFI44 (37641_at) expression, fold change upon IL-13 stimulation (lot 2, Day 3, AI method): 3.8 fold | IFIT1 (915_at) expression, fold change upon IL-13 stimulation (lot 2, Day 3, AI method): 9 fold | IFIT1 (32814_at) expression, fold change upon IL-13 stimulation (lot 2, Day 3, AI method): 4 fold
